Molecular target: Transient receptor potential cation channel subfamily M member 4 (Homo sapiens, UniProt Q8TD43)
Assay: Inhibition of TRPM4 (unknown origin)

Transient receptor potential cation channel subfamily M member 4, sequence (Q8TD43 whole entry): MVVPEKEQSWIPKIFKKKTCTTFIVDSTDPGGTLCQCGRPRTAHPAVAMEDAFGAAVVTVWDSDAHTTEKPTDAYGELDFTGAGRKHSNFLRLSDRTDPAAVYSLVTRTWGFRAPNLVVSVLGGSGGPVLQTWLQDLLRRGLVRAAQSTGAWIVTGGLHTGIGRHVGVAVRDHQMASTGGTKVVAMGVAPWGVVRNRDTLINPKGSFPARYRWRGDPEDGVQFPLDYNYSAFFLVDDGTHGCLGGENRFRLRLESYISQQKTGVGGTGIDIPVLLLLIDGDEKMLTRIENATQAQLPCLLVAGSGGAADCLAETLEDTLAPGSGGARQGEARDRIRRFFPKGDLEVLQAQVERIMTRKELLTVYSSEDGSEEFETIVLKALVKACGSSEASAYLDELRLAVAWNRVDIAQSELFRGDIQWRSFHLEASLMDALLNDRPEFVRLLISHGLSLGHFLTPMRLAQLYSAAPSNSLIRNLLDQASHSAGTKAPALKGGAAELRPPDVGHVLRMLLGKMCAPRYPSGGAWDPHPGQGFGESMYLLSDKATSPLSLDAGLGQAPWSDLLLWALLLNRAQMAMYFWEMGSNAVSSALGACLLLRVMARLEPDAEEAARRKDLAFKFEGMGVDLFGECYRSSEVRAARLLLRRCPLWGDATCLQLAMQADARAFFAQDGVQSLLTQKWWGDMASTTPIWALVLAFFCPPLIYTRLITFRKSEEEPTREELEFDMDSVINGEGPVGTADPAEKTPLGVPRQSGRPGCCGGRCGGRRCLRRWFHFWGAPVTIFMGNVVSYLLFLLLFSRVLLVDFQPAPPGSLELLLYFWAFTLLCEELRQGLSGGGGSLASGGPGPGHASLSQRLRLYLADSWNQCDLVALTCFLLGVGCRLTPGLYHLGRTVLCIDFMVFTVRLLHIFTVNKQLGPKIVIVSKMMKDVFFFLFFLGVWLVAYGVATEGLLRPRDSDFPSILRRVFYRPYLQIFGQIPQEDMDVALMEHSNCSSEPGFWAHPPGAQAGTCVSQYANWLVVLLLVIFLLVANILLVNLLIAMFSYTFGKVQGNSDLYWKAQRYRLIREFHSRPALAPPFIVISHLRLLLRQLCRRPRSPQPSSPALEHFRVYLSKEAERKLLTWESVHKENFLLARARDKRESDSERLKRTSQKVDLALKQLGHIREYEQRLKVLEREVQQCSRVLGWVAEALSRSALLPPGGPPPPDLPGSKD

Oc1cc2ccccc2c2ccccc12
IC50: 29 µM
